# Laboratory results: ChEMBL document CHEMBL1126442 (Bioorg Med Chem Lett, 1992)
# Columns and labels:
# [1] = target: T1, Muscarinic acetylcholine receptor M1 (Homo sapiens, UniProt P11229); experiment: Dissociation constant for human Muscarinic acetylcholine receptor M1 was determined.
# T1 sequence (P11229 whole entry): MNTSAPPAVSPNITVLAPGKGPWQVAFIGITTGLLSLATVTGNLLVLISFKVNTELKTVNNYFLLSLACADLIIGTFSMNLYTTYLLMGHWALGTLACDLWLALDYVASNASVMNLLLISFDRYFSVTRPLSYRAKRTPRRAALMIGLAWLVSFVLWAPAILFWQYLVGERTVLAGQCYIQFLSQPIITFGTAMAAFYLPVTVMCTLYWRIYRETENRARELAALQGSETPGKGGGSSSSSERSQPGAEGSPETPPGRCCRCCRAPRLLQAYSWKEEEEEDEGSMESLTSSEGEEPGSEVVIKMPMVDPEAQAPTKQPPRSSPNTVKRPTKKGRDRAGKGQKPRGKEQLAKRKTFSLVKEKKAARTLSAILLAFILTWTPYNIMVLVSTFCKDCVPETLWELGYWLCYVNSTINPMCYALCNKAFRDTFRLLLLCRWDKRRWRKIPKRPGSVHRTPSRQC
# [2] = target: T2, Muscarinic acetylcholine receptor M2 (Homo sapiens, UniProt P08172); experiment: Dissociation constant for human Muscarinic acetylcholine receptor M2 was determined.
# T2 sequence (P08172 whole entry): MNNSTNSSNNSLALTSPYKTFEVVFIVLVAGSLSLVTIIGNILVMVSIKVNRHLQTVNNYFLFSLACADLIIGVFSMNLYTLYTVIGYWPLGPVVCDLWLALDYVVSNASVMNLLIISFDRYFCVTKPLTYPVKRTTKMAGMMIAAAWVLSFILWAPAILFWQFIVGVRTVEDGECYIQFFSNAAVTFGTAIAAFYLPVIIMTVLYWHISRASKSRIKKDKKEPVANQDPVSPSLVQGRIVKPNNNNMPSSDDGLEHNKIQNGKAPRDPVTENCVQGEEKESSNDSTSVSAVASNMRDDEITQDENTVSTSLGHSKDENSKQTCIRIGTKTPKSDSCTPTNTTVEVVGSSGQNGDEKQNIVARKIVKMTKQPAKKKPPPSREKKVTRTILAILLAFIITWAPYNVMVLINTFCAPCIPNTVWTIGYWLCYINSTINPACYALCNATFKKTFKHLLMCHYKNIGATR
# [3] = target: T3, Muscarinic acetylcholine receptor M2 (Rattus norvegicus, UniProt P10980); experiment: Dissociation constant for the blocking of brainstem muscarinic M2 receptor was reported.; format: tissue-based
# T3 sequence (P10980 whole entry): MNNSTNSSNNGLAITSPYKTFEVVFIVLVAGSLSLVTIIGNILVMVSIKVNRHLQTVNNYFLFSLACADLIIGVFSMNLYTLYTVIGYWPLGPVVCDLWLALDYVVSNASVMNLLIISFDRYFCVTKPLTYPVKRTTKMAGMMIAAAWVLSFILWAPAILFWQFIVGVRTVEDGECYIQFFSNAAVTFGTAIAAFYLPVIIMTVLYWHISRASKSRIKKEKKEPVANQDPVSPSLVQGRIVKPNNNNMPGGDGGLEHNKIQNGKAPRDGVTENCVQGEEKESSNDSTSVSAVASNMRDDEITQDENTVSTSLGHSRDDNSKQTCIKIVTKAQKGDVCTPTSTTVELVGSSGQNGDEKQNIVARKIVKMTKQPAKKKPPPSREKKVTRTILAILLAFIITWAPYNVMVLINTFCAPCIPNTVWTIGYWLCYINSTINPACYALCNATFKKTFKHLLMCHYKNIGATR
# [4] = target: T4, Muscarinic acetylcholine receptor M4 (Mus musculus, UniProt P32211); experiment: Potency assessed to inhibit cAMP levels in N1E-115 neuroblastoma cells, for blocking oxotremorine-M in functional assay for Muscarinic acetylcholine receptor M4; format: cell-based
# T4 sequence (P32211 whole entry): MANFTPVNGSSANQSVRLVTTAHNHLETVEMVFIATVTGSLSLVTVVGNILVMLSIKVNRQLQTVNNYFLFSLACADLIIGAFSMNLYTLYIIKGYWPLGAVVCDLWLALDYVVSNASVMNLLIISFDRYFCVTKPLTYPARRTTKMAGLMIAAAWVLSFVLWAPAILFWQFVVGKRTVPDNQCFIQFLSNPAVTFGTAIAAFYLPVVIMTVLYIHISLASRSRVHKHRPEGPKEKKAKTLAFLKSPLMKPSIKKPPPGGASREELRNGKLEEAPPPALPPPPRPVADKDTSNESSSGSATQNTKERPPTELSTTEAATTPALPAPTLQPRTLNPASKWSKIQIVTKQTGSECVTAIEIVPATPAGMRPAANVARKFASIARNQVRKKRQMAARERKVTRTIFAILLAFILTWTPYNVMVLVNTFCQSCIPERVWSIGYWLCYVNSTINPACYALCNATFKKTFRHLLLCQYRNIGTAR
# [5] = target: T5, Muscarinic acetylcholine receptor M4 (Rattus norvegicus, UniProt P08485); experiment: Potency assessed to inhibit cAMP levels in rat striatum, for blocking oxotremorine-M, in functional assay for Muscarinic acetylcholine receptor M4; format: tissue-based
# T5 sequence (P08485 whole entry): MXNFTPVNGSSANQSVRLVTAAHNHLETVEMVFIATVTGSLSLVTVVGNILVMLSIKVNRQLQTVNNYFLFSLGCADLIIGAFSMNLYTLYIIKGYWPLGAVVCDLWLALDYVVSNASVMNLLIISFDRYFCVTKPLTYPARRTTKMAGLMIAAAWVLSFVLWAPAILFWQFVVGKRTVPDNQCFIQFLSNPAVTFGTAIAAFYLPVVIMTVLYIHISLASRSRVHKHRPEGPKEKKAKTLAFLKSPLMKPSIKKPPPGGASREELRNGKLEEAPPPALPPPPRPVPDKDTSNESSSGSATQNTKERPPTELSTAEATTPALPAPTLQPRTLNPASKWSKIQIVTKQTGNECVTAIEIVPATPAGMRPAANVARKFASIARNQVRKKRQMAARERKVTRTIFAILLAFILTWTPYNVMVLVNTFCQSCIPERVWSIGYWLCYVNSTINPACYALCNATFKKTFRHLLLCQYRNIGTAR
# [6] = target: T3, Muscarinic acetylcholine receptor M2; experiment: Dissociation constant for the blocking of cardiac muscarinic M2 receptor was reported.; parameters: species or system Heart
# [7] = target: T3, Muscarinic acetylcholine receptor M2; experiment: Dissociation constant for the blocking of heart muscarinic M2 receptor was reported.
# Rattus norvegicus = organism: Rattus norvegicus; experiment: Ability to reverse oxotremorine-M mediated inhibition of evoked acetylcholine release from hippocampal tissue; format: functional, Hippocampus
Kd [1],Kd [2],SMILES,Kd [3],Kd [4],Kd [5],Kd [6],Kd [7],Kd (Rattus norvegicus)
9700 nM,4400 nM,C[C@@H]1OC(=O)C[C@H]1C/C=C/[C@H]1CCCCN1C,1210 nM,,,,,
,,C[C@@H]1OC(=O)[C@H]2C[C@H]3CCCC[C@@H]3[C@@H](/C=C/[C@H]3CCC[C@H](C)N3C)[C@@H]12 [HIMBACINE],4.6 nM,11.3 nM,5.4 nM,3 nM,6.9 nM,8.5 nM
